The test system of test [1] is phospho-S6RP (Ser 235/236) in RBE cells. Briefly: Cellular Proliferation Protocol (cellular phospho-S6RP HTRF), RBE cells. The test is classed as cell-based. The note with it: 6 hours treatment, RBE or SNU-1079 cells, cell line not given. In outline: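 Phospho-S6RP (Ser 235/236) was quantified by HTRF in lysed RBE cells (2000/well) after a 6 h treatment at 37° C, with overnight antibody incubation at room temperature. IC50 values came from 4-parameter dose-response fits relative to DMSO vehicle.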
(TR-FRET usually uses a lanthanide donor and a delayed reading to cut background.)

For the next test, the target named is SRC (Homo sapiens, UniProt P12931). Briefly: SRC Biochemical Assay Protocol (microfluidic mobility shift assay, FLPeptide4 substrate). The method in brief: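 Mobility-shift readout of phosphorylated FLPeptide4 (1.5 μM) after 90 min kinase reaction with 50 μM ATP and 0.26 nM SRC in pH 7.4 HEPES buffer. Compounds, tested 0.0017–100 μM, were preincubated 30 min with enzyme and peptide; IC50 from 4-parameter logistic fit versus neutral controls.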

A further test has as its system RBE cells. Briefly: Cell Viability Protocol (CellTiterGlo), RBE cells. In kind it is cell-based. Particulars: RBE or SNU-1079 cells, 72 or 120 hour, cell line and time not given. In outline: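 After 72 h or 120 h compound exposure at 37° C, viability was read by CellTiterGlo as % of DMSO vehicle, with IC50 fitted by a 4-parameter curve. Cells had been seeded at 1200/well in 10% FBS RPMI 1640 and allowed 24 h before dosing.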
Background: In ATP-based viability assays light output follows the ATP content of the culture.

Usually IC50 stands for the concentration at which inhibition is half-maximal. Take `C=CC(=O)N1CCC(N2CC(C#Cc3c(-c4ccc(F)c5c4OCO5)c4c(N)ncnc4n3C(C)C)C2)CC1` [II-134]: the IC50 is 10 to 1000 nM in test [1], at most 10 nM at SRC and 10 to 1000 nM in the test on RBE cells.

Consider `Cc1ccnc(Oc2ccc(-c3c(C#C[C@@H]4[C@H]5CN(C(=O)/C=C/CN6CCC(F)C6)C[C@@H]45)n(C)c4ncnc(N)c34)cc2)c1` (stereo partly drawn) [II-240, (E)-1-((1R,5S,6s)-6-((4-amino-7-methyl-5-(4-((4-methylpyridin-2-yl)oxy)phenyl)-7H-pyrrolo[2,3-d]pyrimidin-6-yl)ethynyl)-3-azabicyclo[3.1.0]hexan-3-yl)-4-(3-fluoropyrrolidin-1-yl)but-2-en-1-one], for which the IC50 (in test [1]; on SRC; with RBE cells) was 10 to 1000 nM throughout.

In the case of `C=CC(=O)N1CC[C@H](N2CC(C#Cc3c(-c4cccc(Cl)c4OC)c4c(N)ncnc4n3C)C2)[C@H](O)C1` [II-266], the IC50 lay in the range of 1000 to 10000 nM in test [1] (6 h), 10 to 1000 nM at SRC and 1000 to 10000 nM with RBE cells.

On to `CCN(CC)C/C=C/C(=O)N1C[C@@H]2[C@@H](C#Cc3c(-c4ccc(Oc5ccccc5)cc4)c4c(N)ncnc4n3C)[C@@H]2C1` [II-223, (E)-1-((1R,5S,6s)-6-((4-amino-7-methyl-5-(4-phenoxyphenyl)-7H-pyrrolo[2,3-d]pyrimidin-6-yl)ethynyl)-3-azabicyclo[3.1.0]hexan-3-yl)-4-(diethylamino)but-2-en-1-one], for which the IC50 (in test [1] (6 h); on SRC; with RBE cells) was 10 to 1000 nM in each case.

For `C=CC(=O)N1CCC(C#Cc2c(-c3ccc(Nc4ccccc4)cc3)c3c(N)ncnc3n2C(C)C)CC1` [Example I-7], the results for the 50% inhibitory concentration (IC50) (in test [1] (6 h); at SRC; in the test on RBE cells) were at most 10 nM, 10 to 1000 nM and 10 to 1000 nM, respectively.

For the compound “1-((1R,5S,6s)-6- ((4-amino-5-(2- methoxy-4-((6- methylpyridin-2- yl)oxy)phenyl)-7- (2-methoxyethyl)- 7H-pyrrolo[2,3- d]pyrimidin-6- yl)ethynyl)-3- azabicyclo[3.1.0] hexan-3-yl)prop-2- en-1-one [II-275]”, the IC50 (in test [1]; at SRC; in the test with RBE cells) was 10 to 1000 nM each time.

`C=CC(=O)N1CC[C@@H](N2CC(C#Cc3c(-c4ccc(Cl)cc4)c4c(N)ncnc4n3C)C2)[C@@H](O)C1` [II-26]: the IC50 (in test [1]; on SRC; with RBE cells) was 10 to 1000 nM each time.

`CN(C)C/C=C/C(=O)N1CCCC(C#Cc2c(-c3ccc(Oc4ccccc4)cc3)c3c(N)ncnc3n2C)CC1` (stereo not drawn) [II-179, (E)-1-(4-((4-amino-7-methyl-5-(4-phenoxyphenyl)-7H-pyrrolo[2,3-d]pyrimidin-6-yl)ethynyl)azepan-1-yl)-4-(dimethylamino) but-2-en-1-one]: the IC50 (in test [1] (6 h); on SRC; in the test with RBE cells) was 10 to 1000 nM each time.

As to `C=CC(=O)N1CCCC(C#Cc2c(-c3ccc(Oc4ccccc4)cc3)c3c(N)ncnc3n2C)CC1` (stereo not drawn) [II-178, 1-(4-((4-amino-7-methyl-5-(4-phenoxyphenyl)-7H-pyrrolo[2,3-d]pyrimidin-6-yl)ethynyl)azepan-1-yl)prop-2-en-1-one], the IC50 (in test [1] (6 h); at SRC; with RBE cells) was 10 to 1000 nM each time.

On to `C=CC(=O)N[C@@H](CO)C(=O)N1C[C@@H]2[C@@H](C#Cc3c(-c4ccc(Oc5ccccc5)cc4)c4c(N)ncnc4n3C)[C@@H]2C1` [II-210, N-[(2S)-1-[(1R,5S,6S)-6-[2-[4-amino-7-methyl-5-(4-phenoxyphenyl)-7H-pyrrolo[2,3-d]pyrimidin-6-yl]ethynyl]-3-azabicyclo[3.1.0]hexan-3-yl]-3-hydroxy-1-oxopropan-2-yl]prop-2-enamide], for which the IC50 (in test [1] (6 h); on SRC; in the test with RBE cells) was at most 10 nM each time.

Regarding `C=CC(=O)N1C[C@@H]2[C@@H](C#Cc3c(-c4ccc(Oc5cccc(C)n5)c(OC)c4)c4c(N)ncnc4n3C)[C@@H]2C1` [II-218, 1-((1R,5S,6s)-6-((4-amino-5-(3-methoxy-4-((6-methylpyridin-2-yl)oxy)phenyl)-7-methyl-7H-pyrrolo[2,3-d]pyrimidin-6-yl)ethynyl)-3-azabicyclo[3.1.0]hexan-3-yl)prop-2-en-1-one], the IC50 (in test [1] (6 h); at SRC; in the test on RBE cells) was 10 to 1000 nM in each case.

Take `C=CC(=O)N1CCC(N2CC(C#Cc3c(-c4ccc(Oc5cccc(C)n5)c(OC)c4)c4c(N)ncnc4n3C)C2)CC1` [II-81]: the IC50 (in test [1]; at SRC; in the test on RBE cells) was 10 to 1000 nM each time.

`C=CC(=O)N1CCC(N2CC(C#Cc3c(-c4ccc(Oc5ccccc5)cc4)c4c(N)ncnc4n3C)C2)C1` (stereo not drawn) [II-195, 1-(3-(3-((4-amino-7-methyl-5-(4-phenoxyphenyl)-7H-pyrrolo[2,3-d]pyrimidin-6-yl)ethynyl)azetidin-1-yl)pyrrolidin-1-yl)prop-2-en-1-one]: the half-inhibitory concentration (IC50) (in test [1] (6 h); at SRC; in the test on RBE cells) was 10 to 1000 nM throughout.

In the case of `C=CC(=O)N1CC[C@@H](N2CC(C#Cc3c(-c4ccc(OC5CC5)c(OC)c4)c4c(N)ncnc4n3C)C2)[C@@H](O)C1` [II-68], the values for the IC50 (in test [1]; on SRC; with RBE cells) were 10 to 1000 nM, 1000 to 10000 nM and 1000 to 10000 nM, respectively.

`C=CC(=O)N1CCC(N2CC(F)(C#Cc3c(-c4ccc(Oc5cccc(C)n5)c(OC)c4)c4c(N)ncnc4n3C)C2)CC1` [II-243]: the IC50 (in test [1] (6 h); on SRC; in the test on RBE cells) was 10 to 1000 nM throughout.

With `C=CC(=O)N1CCC(N2CC(C#Cc3c(-c4ccc(Cl)c(C)c4)c4c(N)ncnc4n3C(C)C)C2)CC1` [II-114], the IC50 in test [1] is 10 to 1000 nM; on SRC, at most 10 nM; in the test on RBE cells it was 10 to 1000 nM.

In the case of `C=CC(=O)N1C[C@@H]2[C@@H](C#Cc3c(-c4ccc(Oc5cccc(C)n5)cc4OC)c4c(N)ncnc4n3CCOC)[C@@H]2C1` [II-276], the IC50 (in test [1] (6 h); at SRC; in the test on RBE cells) was 10 to 1000 nM throughout.

For the origin of these results see patent US20250154154A1 (Relay Binney Street, 2nd Floor, priority 2020, published 2025).
